Assay results taken from US5466682A, “Acylamino-alkyliden-hydroxy-bisphosphonic acids esters and salts thereof, wherein the acyl group is derived from an acid having antiinflammatory activity” (Istituto Gentili S.p.A., priority 1991, dated 1995).

Assays:
[1] = tested on: bone calcium loss induced by retinoid; test: Bone calcium loss induced by retinoid in thyroparathyroidectomized rat (plasma Ca); assay type: in vivo, rat (male); conditions: thyroparathyroidectomized rats, retinoid s.c. 3 days, 24 hours after last administration; for Plasmatic Ca increase after retinoid adm.: controls 1.11 ± 0.03; for % inhibition (of plasmatic Ca increase after retinoid): versus controls
Experimental: Male rats weighing about […] are thyroparathyroidectomyzed under Nembutal anaesthesia. The animals are treated with thyroxine on alternate days during all the test. 7 Days after surgery, blood is withdrawn by means of intracardiac puncture and Ca is determined on plasma. […] 24 Hours after the last administration, animals are killed and blood is recovered to determine Ca again.
BONE CALCIUM LOSS INDUCED BY RETINOID IN RAT

Carrageenin Oedema = Carrageenin Oedema in Rat (% protection of paw oedema); assay type: in vivo, rat (S.D. male); conditions: subcutaneous; for % Protection 2nd hour: 2nd hour after carrageenin; for % Protection 4th hour: 4th hour after carrageenin; for % Protection 6th hour: 6th hour after carrageenin
Experimental: Carrageenin Oedema in Rat
Carrageenin+Ibuprofen (11 and 5.5 mg/kg)
Carrageenin+compound of example 8 (Br-Ax) (25.0 and 12.5 mg/kg)
Carrageenin+compound of example 7 (Br-Ab) (25.0 and 12.5 mg/kg)
Note: Ibuprofen doses are equimolar to the corresponding Br-Ab and Br-Ax doses.
S.D. male rats weighing 160-180 g
1) Control - (Carrageenin only)
Each group consisted of 5 males, trying to obtain the most homogeneous total weight for each group. The animals were inoculated subcutaneously with the test solutions homogenized in 5% gum Arabic which had been sterilized by filtration with "Acrodisc" Gelman with […] pores.
After 1 hour the animals were […] 0.1 ml of 1% carrageenin in sterile saline. Carrageenin was kept under stirring by means of a magnetic stirred, to make it as homogeneous as possible.
At the same time, the basal paw volumes were determined by means of a plethysmograph, so as to make possible to repeat the measurements in the most reliable way in the subsequent hours.
2 Hours after carrageenin inoculation, the measure of paw volumes was determined (2nd hour). Subsequently, said measurement was effected at the 4th and 6th hours from inoculation. After that, the % protection was calculated by means of the following formula: [formula]

Structure (SMILES) | Plasmatic Ca increase after retinoid adm. [1] | % inhibition (of plasmatic Ca increase after retinoid) [1] | % Protection 2nd hour (Carrageenin Oedema; 12.5 mg/kg) | % Protection 4th hour (Carrageenin Oedema; 12.5 mg/kg) | % Protection 6th hour (Carrageenin Oedema; 12.5 mg/kg) | % Protection 2nd hour (Carrageenin Oedema; 25.0 mg/kg) | % Protection 4th hour (Carrageenin Oedema; 25.0 mg/kg) | % Protection 6th hour (Carrageenin Oedema; 25.0 mg/kg) | % Protection 2nd hour (Carrageenin Oedema; 5.5 mg/kg) | % Protection 4th hour (Carrageenin Oedema; 5.5 mg/kg) | % Protection 6th hour (Carrageenin Oedema; 5.5 mg/kg) | % Protection 2nd hour (Carrageenin Oedema; 11.0 mg/kg) | % Protection 4th hour (Carrageenin Oedema; 11.0 mg/kg) | % Protection 6th hour (Carrageenin Oedema; 11.0 mg/kg)
CC(C)Cc1ccc(C(C)C(=O)NCCCC(O)(P(=O)(O)O)P(=O)(O)O)cc1 (stereo not shown) [Br--Ab, [4-[2-(4-Isobutylphenyl)-propionyl]-amino-1-hydroxybutylidene]-diphosphonicacid] | 0.62 ± 0.03 mmol/lt | 44.1% | 31% | 28% | 30% | 68% | 57% | 38% | – | – | – | – | – | –
CC(C)Cc1ccc(C(C)C(=O)O)cc1 (stereo not shown) [Ibuprofen, ibuprofen, reference compound] | – | – | – | – | – | – | – | – | 18% | 3% | 4% | 21% | 25% | 28%
CC(C)Cc1ccc(C(C)C(=O)NCCCCCC(O)(P(=O)(O)O)P(=O)(O)O)cc1 (stereo not shown) [Br--Ax, [6-[2-(4-Isobutylphenyl)-propionyl]-amino-1-hydroxyhexylidene]-diphosphonicacid] | 0.75 ± 0.17 mmol/lt | 32.4% | 41% | 36% | 48% | 42% | 21% | 56% | – | – | – | – | – | –
